Results from patent US20110159520A1, “HYBRID PROTEINS COMPRISING MEMBRANE RECEPTOR AND ION CHANNEL, AND THEIR USE AS BIOSENSORS” (UNIVERSITE JOSEPH FOURIER, priority 2008, published 2011).
Blank lines part the entries; values can stand above or below the compound they belong to.

How the values were obtained:
M2−K 0-20 hybrid protein = target: T1, M2−K 0-20 hybrid protein (UniProt P08172+Q61743); assay: TEVC recordings from xenopus oocytes expressing M2−K 0-20; format: cell-based, human M2, mouse Kir6.2
T1 construct: expressed in transfected cells; host or cells: Xenopus oocytes injected with cRNA
T1 sequence (P08172+Q61743 with tags, fused parts or gaps): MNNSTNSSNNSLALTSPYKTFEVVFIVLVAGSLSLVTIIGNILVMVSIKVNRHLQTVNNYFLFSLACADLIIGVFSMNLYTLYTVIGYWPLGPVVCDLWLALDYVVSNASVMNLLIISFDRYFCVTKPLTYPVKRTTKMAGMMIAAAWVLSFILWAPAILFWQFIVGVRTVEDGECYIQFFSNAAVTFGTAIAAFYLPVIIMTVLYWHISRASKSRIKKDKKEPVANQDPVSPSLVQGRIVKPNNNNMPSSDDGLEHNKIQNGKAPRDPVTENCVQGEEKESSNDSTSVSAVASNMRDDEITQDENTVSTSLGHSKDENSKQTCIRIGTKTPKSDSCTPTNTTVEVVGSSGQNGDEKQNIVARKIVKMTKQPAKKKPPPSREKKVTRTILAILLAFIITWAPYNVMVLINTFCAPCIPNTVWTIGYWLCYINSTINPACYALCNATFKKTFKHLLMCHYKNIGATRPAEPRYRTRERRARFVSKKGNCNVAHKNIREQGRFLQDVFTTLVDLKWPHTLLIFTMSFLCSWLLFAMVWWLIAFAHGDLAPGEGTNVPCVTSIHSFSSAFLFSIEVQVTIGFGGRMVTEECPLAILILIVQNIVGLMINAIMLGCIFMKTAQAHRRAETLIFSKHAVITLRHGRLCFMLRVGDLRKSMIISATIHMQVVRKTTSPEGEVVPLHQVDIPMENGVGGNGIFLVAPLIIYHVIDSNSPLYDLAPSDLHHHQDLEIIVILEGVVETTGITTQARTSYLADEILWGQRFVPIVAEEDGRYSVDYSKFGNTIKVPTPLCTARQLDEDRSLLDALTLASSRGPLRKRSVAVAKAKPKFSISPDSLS
Description: (§1) Whole-cell currents were measured using two-electrode voltage clamp (TEVC). Microelectrodes were filled with 3 M KCl and oocytes were bathed in a solution having (in mM): 91 KCl, 1.8 CaCl2, 1 MgCl2, 5 HEPES (pH 7.4) and 0.3 niflumic acid to block endogenous chloride current.
(§2) The TEVC voltage protocol consisted of 500-ms steps to −50, 0 and +50 mV—during which current was measured—repeated every 5 s, the holding potential being 0 mV.
(§3) Average values are presented as mean±s.e.m. Non-linear least-square curve fitting to the data points obtained at various concentrations of activating or inhibiting ligands was done using a standard Hill equation: […]
(§4) Ba^2+ was used as a generic K^+ channel blocker. Percent changes in current were calculated with respect to the baseline extrapolated from measurements of Ba^2+-sensitive currents before and after agonist application.

M2−K 0-25 hybrid protein = target: T2, M2−K 0-25 hybrid protein (UniProt P08172+Q61743); format: cell-based, human M2, mouse Kir6.2
T2 construct: expressed in transfected cells; host or cells: Xenopus oocytes injected with cRNA (whole-cell TEVC, or outside-out patches excised from them)
T2 sequence (P08172+Q61743 with tags, fused parts or gaps): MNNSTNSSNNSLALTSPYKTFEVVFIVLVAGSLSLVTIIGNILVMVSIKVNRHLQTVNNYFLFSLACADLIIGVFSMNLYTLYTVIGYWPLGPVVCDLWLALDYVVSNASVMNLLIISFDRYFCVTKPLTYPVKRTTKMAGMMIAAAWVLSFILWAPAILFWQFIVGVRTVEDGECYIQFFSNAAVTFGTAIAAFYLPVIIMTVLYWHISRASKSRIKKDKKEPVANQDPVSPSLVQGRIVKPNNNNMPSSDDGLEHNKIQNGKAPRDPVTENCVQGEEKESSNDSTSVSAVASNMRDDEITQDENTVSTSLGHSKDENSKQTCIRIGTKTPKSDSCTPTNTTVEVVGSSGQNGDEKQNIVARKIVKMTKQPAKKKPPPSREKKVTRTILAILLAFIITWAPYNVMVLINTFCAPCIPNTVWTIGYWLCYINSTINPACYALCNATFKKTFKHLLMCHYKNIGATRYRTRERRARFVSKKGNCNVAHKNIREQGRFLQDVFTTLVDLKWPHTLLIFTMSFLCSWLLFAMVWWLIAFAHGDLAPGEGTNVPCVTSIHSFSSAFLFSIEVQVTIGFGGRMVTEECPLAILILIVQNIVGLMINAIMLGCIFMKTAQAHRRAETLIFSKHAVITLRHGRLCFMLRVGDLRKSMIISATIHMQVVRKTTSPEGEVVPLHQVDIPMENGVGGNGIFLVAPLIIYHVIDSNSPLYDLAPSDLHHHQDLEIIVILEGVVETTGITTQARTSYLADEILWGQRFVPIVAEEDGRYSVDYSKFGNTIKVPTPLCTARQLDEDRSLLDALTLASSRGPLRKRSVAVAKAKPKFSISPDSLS
Description: Xenopus oocytes defoliculated by collagenase treatment were microinjected with 50 nl of water containing one or a mixture of the following quantities of cRNA:
Oocytes were incubated in individual wells in Barth's solution (KCl 1 mM, MgSO4 0.82 mM, NaCl 88 mM, NaHCO3 2.4 mM, CaCl2 0.41 mM, Ca(NO3)2 0.3 mM, Hepes 16 mM, pH 7.4) supplemented with 100 U·ml^−1 penicillin, 100 μg ml^−1 streptomycin and […] gentamycin, for at least 48 hrs at 19° C. before characterization.
as §1
Unless otherwise specified, the concentration of M2 ligands was 5 μM.
as §2, §3
Ba^2+ was used as a generic K^+ channel blocker. Percent changes in current were calculated with respect to the baseline extrapolated from measurements of Ba^2+-sensitive currents before and after agonist application. This method emphasizes reversibility and provides an underestimate of the true effects. For dose-response data, which were acquired by applying sequentially increasing concentrations of modulator to the same patch or oocyte, changes in current could only be measured with respect to the current before application, yielding somewhat larger values.

D2-K 0-25 hybrid protein = D2-K 0-25 hybrid protein (UniProt P14416+Q61743); conditions: sulpiride 5 μM during quinpirole 5 μM
Description: as §1, §2, §3, §4

[1] = system: CCR2 chemokine receptor fused to Kir6.2 deleted in its N-terminus part; assay: Electric flux of CCR2-Kir6.2 fusion protein; format: cell-based; conditions: final concentration from about 0.3 μM to about 2 μM
Chain of CCR2 chemokine receptor fused to Kir6.2 deleted in its N-terminus part (P41597 1-313 limits assumed): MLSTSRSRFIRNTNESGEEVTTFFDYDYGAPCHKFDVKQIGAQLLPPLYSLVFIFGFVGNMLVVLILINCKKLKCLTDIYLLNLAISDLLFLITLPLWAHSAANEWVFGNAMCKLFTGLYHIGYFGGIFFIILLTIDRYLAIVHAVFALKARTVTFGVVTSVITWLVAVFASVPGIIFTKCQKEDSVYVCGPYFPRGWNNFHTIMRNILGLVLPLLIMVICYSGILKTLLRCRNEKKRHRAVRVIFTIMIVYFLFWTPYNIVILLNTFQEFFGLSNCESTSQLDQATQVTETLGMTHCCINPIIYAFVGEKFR

Chain of D2-K 0-25 hybrid protein (P14416+Q61743 fused): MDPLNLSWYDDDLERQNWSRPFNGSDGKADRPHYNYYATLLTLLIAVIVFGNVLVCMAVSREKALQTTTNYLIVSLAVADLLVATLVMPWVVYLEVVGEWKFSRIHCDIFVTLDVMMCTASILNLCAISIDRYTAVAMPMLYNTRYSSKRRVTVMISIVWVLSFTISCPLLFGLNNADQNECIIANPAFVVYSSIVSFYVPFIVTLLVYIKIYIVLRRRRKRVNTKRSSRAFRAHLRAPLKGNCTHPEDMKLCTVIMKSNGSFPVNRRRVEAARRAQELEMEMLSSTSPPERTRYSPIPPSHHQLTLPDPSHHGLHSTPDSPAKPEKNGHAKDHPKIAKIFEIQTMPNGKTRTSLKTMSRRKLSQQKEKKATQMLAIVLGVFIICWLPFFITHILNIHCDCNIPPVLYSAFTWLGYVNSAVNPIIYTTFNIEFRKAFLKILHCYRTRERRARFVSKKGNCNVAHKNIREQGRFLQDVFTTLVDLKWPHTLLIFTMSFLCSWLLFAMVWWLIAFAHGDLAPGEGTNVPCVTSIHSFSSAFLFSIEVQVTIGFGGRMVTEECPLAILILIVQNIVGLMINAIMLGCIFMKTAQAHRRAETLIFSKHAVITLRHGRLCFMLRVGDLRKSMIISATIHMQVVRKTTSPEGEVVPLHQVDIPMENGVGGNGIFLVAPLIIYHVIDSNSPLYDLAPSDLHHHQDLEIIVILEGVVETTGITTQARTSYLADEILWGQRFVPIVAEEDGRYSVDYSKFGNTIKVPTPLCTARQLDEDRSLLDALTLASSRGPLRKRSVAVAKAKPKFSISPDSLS

effect of antagonist on quinpirole-induced decrease in current (D2-K 0-25 hybrid protein): reversed
Compound: CCN1CCCC1CNC(=O)c1cc(S(N)(=O)=O)ccc1OC (stereo not shown) [sulpiride]

change of current induced by CCh (dose response) (M2−K 0-20 hybrid protein; increasing CCh concentrations): stimulated, in a dose-dependent manner | change of current induced by CCh (dose response) (M2−K 0-25 hybrid protein; increasing CCh concentrations, M2−K 0-25): stimulated, in a dose-dependent manner
Compound: C[N+](C)(C)CCOC(N)=O [CCh, carbachol]

sensitivity of M2−K 0-25 to Dopa (M2−K 0-25 hybrid protein; Dopa 5 μM, TEVC): insensitive
Compound: NCCc1ccc(O)c(O)c1 [Dopamine]

Second part, the compound before the results:

Compound: CN1[C@@H]2CC[C@H]1C[C@@H](OC(=O)C(CO)c1ccccc1)C2 (stereo partly shown) [atropine]
effect of antagonist on ACh-induced current (M2−K 0-20 hybrid protein; atropine 1 μM with ACh 5 μM): inhibits the ACh-induced current | effect of antagonist on ACh-induced current (M2−K 0-25 hybrid protein): inhibits the ACh-induced current

Compound: CCL2: CCR2 agonist: CCL2 or MCP1
generation of electric flux after stimulating the receptor [1]: generation of an electric flux
